According to patent US5432261A, “Motlin-like polypeptide and use thereof” (priority 1989, dated 1995):
Where two headings read alike, the source gives them in different places. Square brackets hold non-standard residues; d marks the D form. Peptide text beside a SMILES is read from it. hSer = N[C@@H](CCO)C(=O)O

Target: upper small intestine of rabbit (Oryctolagus cuniculus, UniProt G1T803)
Experiment: Intestinal contraction activity by Magnus method using upper small intestine of rabbit
Method: An intestinal contraction activity was measured by Magnus method using upper small intestine of rabbit ["J. Pharm. Pharmac.", Vol. 28, pages 650-651 (1976)], on each motilin-like polypeptides (Example 1, wherein R1 is Hse, Asp-Gly-Ile-Phe-Hse, or Arg-Ile-Phe-Hse) according to the invention, as test samples and a conventional pure [Leu^13 ]-motilin, as control sample. The activities of the test samples and control sample were compared, under assumption of that an contraction activity caused by 10^-6 M acetylcholine is 100%.

upper small intestine of rabbit, sequence (G1T803 1-400): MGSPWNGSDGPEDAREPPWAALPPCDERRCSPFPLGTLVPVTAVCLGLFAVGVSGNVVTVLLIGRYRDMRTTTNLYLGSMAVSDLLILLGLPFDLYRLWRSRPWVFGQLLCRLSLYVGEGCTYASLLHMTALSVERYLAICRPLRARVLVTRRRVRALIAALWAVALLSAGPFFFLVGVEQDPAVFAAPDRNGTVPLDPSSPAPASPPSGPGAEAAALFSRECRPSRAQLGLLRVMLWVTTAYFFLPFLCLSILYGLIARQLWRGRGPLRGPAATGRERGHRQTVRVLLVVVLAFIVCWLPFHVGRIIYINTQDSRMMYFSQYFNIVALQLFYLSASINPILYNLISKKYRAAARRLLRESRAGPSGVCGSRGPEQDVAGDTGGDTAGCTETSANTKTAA

For `CC[C@H](C)[C@H](NC(=O)[C@H](CCC(=O)O)NC(=O)CNC(=O)[C@H](Cc1ccc(O)cc1)NC(=O)[C@@H](NC(=O)[C@H](Cc1ccccc1)NC(=O)[C@@H](NC(=O)[C@@H]1CCCN1C(=O)[C@@H](NC(=O)[C@@H](N)Cc1ccccc1)C(C)C)[C@@H](C)CC)[C@@H](C)O)C(=O)N[C@@H](CCC(N)=O)C(=O)N[C@@H](CCCNC(=N)N)C(=O)N[C@@H](CC(C)C)C(=O)N[C@@H](CCC(N)=O)C(=O)N[C@@H](CCC(=O)O)C(=O)N[C@@H](CCCCN)C(=O)N[C@@H](CCC(=O)O)C(=O)N[C@@H](CCCNC(=N)N)C(=O)N[C@@H](CC(N)=O)C(=O)N[C@@H](CCCCN)C(=O)NCC(=O)N[C@@H](CCC(N)=O)C(=O)N[C@@H](CCO)C(=O)O` [(10) -Ile--Leu--Hse] (H-FVPIFTYGEIQRLQEKERNKGQ[hSer]-OH), the “Activity in vitro (%)” value was 110%.

`CC[C@H](C)[C@H](NC(=O)[C@@H]1CCCN1C(=O)[C@@H](NC(=O)[C@@H](N)Cc1ccccc1)C(C)C)C(=O)N[C@@H](Cc1ccccc1)C(=O)N[C@H](C(=O)N[C@@H](Cc1ccc(O)cc1)C(=O)NCC(=O)N[C@@H](CCC(=O)O)C(=O)N[C@@H](CC(C)C)C(=O)N[C@@H](CCC(=O)O)C(=O)N[C@@H](CCCNC(=N)N)C(=O)N[C@@H](CC(C)C)C(=O)N[C@@H](CCC(N)=O)C(=O)N[C@@H](CCC(=O)O)C(=O)N[C@@H](CCCCN)C(=O)N[C@@H](CCC(=O)O)C(=O)N[C@@H](CCCNC(=N)N)C(=O)N[C@@H](CC(N)=O)C(=O)N[C@@H](CCCCN)C(=O)NCC(=O)N[C@@H](CCC(N)=O)C(=O)N[C@@H](CCO)C(=O)O)[C@@H](C)O` [(11) -Glu--Leu--Hse] (H-FVPIFTYGELERLQEKERNKGQ[hSer]-OH) was tested, and the “Activity in vitro (%)” value was 110%.

For `CC[C@H](C)[C@H](NC(=O)[C@@H]1CCCN1C(=O)[C@@H](NC(=O)[C@@H](N)Cc1ccccc1)C(C)C)C(=O)N[C@@H](Cc1ccccc1)C(=O)N[C@H](C(=O)N[C@@H](Cc1ccc(O)cc1)C(=O)NCC(=O)N[C@@H](CCC(=O)O)C(=O)N[C@@H](CC(C)C)C(=O)N[C@@H](CCC(N)=O)C(=O)N[C@@H](CCCNC(=N)N)C(=O)N[C@@H](CCSC)C(=O)N[C@@H](CCC(N)=O)C(=O)N[C@@H](CCC(=O)O)C(=O)N[C@@H](CCCCN)C(=O)N[C@@H](CCC(=O)O)C(=O)N[C@@H](CCCNC(=N)N)C(=O)N[C@@H](CC(N)=O)C(=O)N[C@@H](CCCCN)C(=O)NCC(=O)N[C@@H](CCC(N)=O)C(=O)O)[C@@H](C)O` [motilin, reference compound], the “Activity in vitro (%)” value (Magnus method, from ED50, contraction activity of native motilin = 100%) was 100%.
